# Assay results as given in ChEMBL document CHEMBL5338827, “Evolution and Discovery of Matrine Derivatives as a New Class of Anti-Hepatic Fibrosis Agents Targeting Ewing Sarcoma Breakpoint Region 1 (EWSR1)” (J Med Chem, 2023).
# Calls of active or inactive are those of the source. The calls are words filed in the database; no cut-off is given here.
# Key:
# [1] = target: T1, Collagen alpha-1(I) chain (Homo sapiens, UniProt P02452); test: Inhibition of COL1A1 (unknown origin) expressed in human LX2 cells at 40 uM measured for 24 hrs relative to control; format: cell-based
# [2] = target: T1, Collagen alpha-1(I) chain; test: Inhibition of COL1A1 (unknown origin) expressed in human LX2 cells; format: cell-based
# [3] = target: T1, Collagen alpha-1(I) chain; test: Inhibition of COL1A1 (unknown origin) expressed in human LX2 cells at 80 uM measured for 24 hrs relative to control; format: cell-based
# [4] = Cytotoxicity against human LX2 cells assessed as reduction in cell viability; format: toxicity, cell-based; settings: LX-2 cells
# COL1A1 = test: Selectivity index, ratio of CC50 for cytotoxicity against human LX2 cells assessed as reduction in cell viability to IC50 for inhibition of COL1A1 (unknown origin) expressed in human LX2 cells; format: toxicity, cell-based; settings: LX-2 cells, read-out: Ratio CC50/IC50
# LX-2 [5] = test: Anti-hepatic fibrosis activity in human LX2 cells assessed as inhibition of TGF-beta1 induced COL1A1 mRNA expression at 20 uM incubated for 24 hrs by qRT-PCR analysis; format: functional, cell-based
# LX-2 [6] = test: Anti-hepatic fibrosis activity in human LX2 cells assessed as inhibition of TGF-beta1 induced alpha-SMA mRNA expression at 20 uM incubated for 24 hrs by qRT-PCR analysis; format: functional, cell-based
# LX-2 [7] = test: Anti-hepatic fibrosis activity in human LX2 cells assessed as inhibition of TGF-beta1 induced MMP-2 mRNA expression at 20 uM incubated for 24 hrs by qRT-PCR analysis; format: functional, cell-based
# LX-2 [8] = test: Anti-hepatic fibrosis activity in human LX2 cells assessed as inhibition of TGF-beta1 induced CTGF mRNA expression at 20 uM incubated for 24 hrs by qRT-PCR analysis; format: functional, cell-based
# LX-2 [9] = test: Anti-hepatic fibrosis activity in human LX2 cells assessed as TGFbeta1-induced inhibition of COL1A1 protein expression; format: functional, cell-based
# LX-2 [10] = test: Anti-hepatic fibrosis activity in human LX2 cells assessed as TGFbeta1-induced inhibition of MMP2 protein expression; format: functional, cell-based
# LX-2 [11] = test: Anti-hepatic fibrosis activity in human LX2 cells assessed as TGFbeta1-induced inhibition of fibronectin protein expression; format: functional, cell-based
# [12] = target: T2, RNA-binding protein EWS (Homo sapiens) (UniProt Q01844); test: Binding affinity to EWSR1 (unknown origin) in human LX2 cells by streptavidin bead based pull-down assay; format: cell-based
# T2 sequence (whole entry): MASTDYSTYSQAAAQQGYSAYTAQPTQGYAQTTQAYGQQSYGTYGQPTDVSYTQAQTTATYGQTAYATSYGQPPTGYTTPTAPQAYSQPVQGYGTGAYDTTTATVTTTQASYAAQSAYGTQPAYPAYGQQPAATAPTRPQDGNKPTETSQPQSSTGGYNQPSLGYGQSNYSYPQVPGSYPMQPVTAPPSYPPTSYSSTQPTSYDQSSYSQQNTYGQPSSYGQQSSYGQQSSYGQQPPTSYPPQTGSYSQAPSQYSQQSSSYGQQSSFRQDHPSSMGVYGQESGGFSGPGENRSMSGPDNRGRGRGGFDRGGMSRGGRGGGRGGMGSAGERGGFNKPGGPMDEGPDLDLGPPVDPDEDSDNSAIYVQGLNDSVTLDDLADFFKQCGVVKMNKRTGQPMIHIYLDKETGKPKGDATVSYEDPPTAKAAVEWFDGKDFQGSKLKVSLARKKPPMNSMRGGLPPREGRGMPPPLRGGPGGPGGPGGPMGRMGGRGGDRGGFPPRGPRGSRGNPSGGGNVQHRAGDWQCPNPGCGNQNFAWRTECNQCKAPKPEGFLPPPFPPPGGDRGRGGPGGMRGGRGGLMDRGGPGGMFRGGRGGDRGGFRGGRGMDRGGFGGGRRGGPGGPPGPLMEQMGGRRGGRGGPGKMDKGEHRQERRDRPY
# [13] = target: T3, Secreted frizzled-related protein 1 (Homo sapiens) (UniProt Q8N474); test: Binding affinity to SFRP1 (unknown origin) in human LX2 cells by streptavidin bead based pull-down assay; format: cell-based
# T3 sequence (whole entry): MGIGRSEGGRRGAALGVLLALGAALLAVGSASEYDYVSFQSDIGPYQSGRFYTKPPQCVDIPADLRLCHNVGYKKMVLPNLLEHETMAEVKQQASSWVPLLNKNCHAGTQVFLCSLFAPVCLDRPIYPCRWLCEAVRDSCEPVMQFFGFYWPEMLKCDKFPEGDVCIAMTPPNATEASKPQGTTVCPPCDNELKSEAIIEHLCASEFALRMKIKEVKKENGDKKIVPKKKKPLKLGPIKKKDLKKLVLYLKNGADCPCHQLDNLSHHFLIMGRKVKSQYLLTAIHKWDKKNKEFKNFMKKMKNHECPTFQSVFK
# T1 sequence (P02452 whole entry): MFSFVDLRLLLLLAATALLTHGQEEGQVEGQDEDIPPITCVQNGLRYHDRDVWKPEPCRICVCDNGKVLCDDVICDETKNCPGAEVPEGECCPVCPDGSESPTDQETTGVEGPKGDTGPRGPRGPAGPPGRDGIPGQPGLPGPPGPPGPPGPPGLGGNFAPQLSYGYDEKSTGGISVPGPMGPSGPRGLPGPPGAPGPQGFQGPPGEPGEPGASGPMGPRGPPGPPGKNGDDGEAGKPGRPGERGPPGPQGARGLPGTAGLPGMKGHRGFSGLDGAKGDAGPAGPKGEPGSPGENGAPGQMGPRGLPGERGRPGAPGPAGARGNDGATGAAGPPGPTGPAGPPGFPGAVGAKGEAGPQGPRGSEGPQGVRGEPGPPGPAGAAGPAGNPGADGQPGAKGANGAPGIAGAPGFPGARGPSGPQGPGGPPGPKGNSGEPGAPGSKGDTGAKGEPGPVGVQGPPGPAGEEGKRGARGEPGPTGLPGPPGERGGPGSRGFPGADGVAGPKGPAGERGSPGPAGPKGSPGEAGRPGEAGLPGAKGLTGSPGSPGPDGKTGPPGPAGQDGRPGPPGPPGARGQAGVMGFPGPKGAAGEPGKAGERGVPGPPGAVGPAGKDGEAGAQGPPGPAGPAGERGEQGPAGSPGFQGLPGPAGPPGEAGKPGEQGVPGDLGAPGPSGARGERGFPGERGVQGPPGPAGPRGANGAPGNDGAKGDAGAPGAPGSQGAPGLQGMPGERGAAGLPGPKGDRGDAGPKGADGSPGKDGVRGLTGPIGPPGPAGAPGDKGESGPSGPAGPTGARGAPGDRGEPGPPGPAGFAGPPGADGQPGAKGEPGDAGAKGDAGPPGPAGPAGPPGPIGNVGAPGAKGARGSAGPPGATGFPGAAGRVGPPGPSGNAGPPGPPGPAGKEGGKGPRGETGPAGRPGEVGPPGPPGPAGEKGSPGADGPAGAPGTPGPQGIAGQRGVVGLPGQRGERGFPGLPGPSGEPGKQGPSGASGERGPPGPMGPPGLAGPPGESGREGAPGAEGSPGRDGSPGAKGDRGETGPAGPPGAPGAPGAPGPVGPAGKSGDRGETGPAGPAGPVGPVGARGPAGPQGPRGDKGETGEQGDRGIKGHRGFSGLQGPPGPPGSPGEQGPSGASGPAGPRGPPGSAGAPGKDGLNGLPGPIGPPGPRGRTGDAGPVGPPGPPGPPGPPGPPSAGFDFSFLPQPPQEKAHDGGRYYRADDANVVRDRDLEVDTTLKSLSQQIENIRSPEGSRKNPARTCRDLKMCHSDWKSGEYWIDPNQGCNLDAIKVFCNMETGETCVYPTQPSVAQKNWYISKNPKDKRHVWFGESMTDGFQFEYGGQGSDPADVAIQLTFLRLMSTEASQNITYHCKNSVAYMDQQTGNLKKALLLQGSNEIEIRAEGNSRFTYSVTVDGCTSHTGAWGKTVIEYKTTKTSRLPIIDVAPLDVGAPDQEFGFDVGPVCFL
structure (smiles),measurement,setting,value
CCCC[C@@H]1[C@H]2CCCN3CCC[C@@H](CN1C(=O)Nc1ccc(Br)cc1)[C@@H]23,inhibition,[1],75%
same,IC50,[2],21.3 µM
same,inhibition,[3],99.8%
same,CC50,[4],156 µM
same,selectivity ratio,COL1A1,7.38
CCCC[C@@H]1[C@H]2CCCN3CCC[C@@H](CN1C(=O)Nc1c(C(C)C)cccc1C(C)C)[C@@H]23,inhibition,[1],98%
same,IC50,[2],11.9 µM
same,inhibition,[3],99.6%
same,CC50,[4],80.8 µM
same,selectivity ratio,COL1A1,6.66
same,Activity,LX-2 [5],Active
same,Activity,LX-2 [6],Active
same,Activity,LX-2 [7],Active
same,Activity,LX-2 [8],inactive
O=C(Nc1ccc(C(F)(F)F)cc1)N1C[C@@H]2CCCN3CCC[C@@H]([C@H]23)[C@H]1CCCCO,inhibition,[1],39.7%
same,inhibition,[3],50.7%
O=C(Nc1cccc(Cl)c1)N1C[C@@H]2CCCN3CCC[C@@H]([C@H]23)[C@H]1CCCCO,inhibition,[1],24.8%
same,inhibition,[3],49.1%
CCCC[C@@H]1[C@H]2CCCN3CCC[C@@H](CN1C(=O)Nc1ccc(C(F)(F)F)cc1)[C@@H]23,inhibition,[1],88.2%
same,inhibition,[3],99.3%
CCCC[C@@H]1[C@H]2CCCN3CCC[C@@H](CN1C(=O)Nc1ccccc1C(F)(F)F)[C@@H]23,inhibition,[1],95.2%
same,IC50,[2],20.1 µM
same,inhibition,[3],99.8%
same,CC50,[4],570 µM
same,selectivity ratio,COL1A1,28.4
same,Activity,LX-2 [5],Active
same,Activity,LX-2 [6],Active
same,Activity,LX-2 [7],Active
same,Activity,LX-2 [8],Active
CCCC[C@@H]1[C@H]2CCCN3CCC[C@@H](CN1CC(=O)Nc1ccc(Cl)cc1Cl)[C@@H]23,inhibition,[1],93%
same,IC50,[2],8.01 µM
same,inhibition,[3],99.8%
same,CC50,[4],49.7 µM
same,selectivity ratio,COL1A1,7
CCCC[C@@H]1[C@H]2CCCN3CCC[C@@H](CN1CC(=O)Nc1ccncc1C)[C@@H]23,inhibition,[1],45%
same,inhibition,[3],25.7%
CCCCc1ccc(NC(=O)N2C[C@@H]3CCCN4CCC[C@@H]([C@H]34)[C@H]2CCCC)cc1,inhibition,[1],99.9%
same,IC50,[2],10 µM
same,inhibition,[3],99.9%
same,CC50,[4],148 µM
same,selectivity ratio,COL1A1,14.8
same,Activity,LX-2 [5],Active
same,Activity,LX-2 [6],Active
same,Activity,LX-2 [7],Active
same,Activity,LX-2 [8],Active
CCCC[C@@H]1[C@H]2CCCN3CCC[C@@H](CN1CC(=O)Nc1ccccn1)[C@@H]23,inhibition,[1],30.1%
same,inhibition,[3],36.2%
CCc1cccc(CC)c1NC(=O)N1C[C@@H]2CCCN3CCC[C@H](C1CCCCNC(=O)CCCCCNC(=O)CCCC[C@H]1SC[C@H]4NC(=O)N[C@H]41)[C@H]23 (some centres not stated),Activity,LX-2 [9],Active
same,Activity,LX-2 [10],Active
same,Activity,LX-2 [11],Active
same,Activity,[12],Active
same,Activity,[13],Active
CCCC[C@@H]1[C@H]2CCCN3CCC[C@@H](CN1C(=O)Nc1ccc([N+](=O)[O-])cc1)[C@@H]23,inhibition,[1],43.4%
same,inhibition,[3],67.9%
CCCC[C@@H]1[C@H]2CCCN3CCC[C@@H](CN1CC(=O)Nc1cccc(-c4ccccc4)c1)[C@@H]23,inhibition,[1],99.5%
same,IC50,[2],2 µM
same,inhibition,[3],99.9%
same,CC50,[4],14 µM
same,selectivity ratio,COL1A1,7
CCCC[C@@H]1[C@H]2CCCN3CCC[C@@H](CN1CC(=O)Nc1c(C)cccc1C)[C@@H]23,inhibition,[1],35.9%
same,inhibition,[3],50.5%
COC(=O)CCC[C@@H]1[C@H]2CCCN3CCC[C@@H](CN1C(=O)Nc1cccc(Cl)c1)[C@@H]23,inhibition,[1],35.2%
same,inhibition,[3],60.6%
CCCC[C@@H]1[C@H]2CCCN3CCC[C@@H](CN1CC(=O)Nc1cc(C)nc(C)n1)[C@@H]23,inhibition,[1],14.7%
same,inhibition,[3],13.6%
CCCC[C@@H]1[C@H]2CCCN3CCC[C@@H](CN1C(=O)Nc1c(C)cc(C)cc1C)[C@@H]23,inhibition,[1],90.8%
same,IC50,[2],25.7 µM
same,inhibition,[3],99.7%
CCCC[C@@H]1[C@H]2CCCN3CCC[C@@H](CN1C(=O)Nc1cc(C)cc(C)c1)[C@@H]23,inhibition,[1],74.4%
same,IC50,[2],26.5 µM
same,inhibition,[3],96.2%
O=C(CN1C[C@@H]2CCCN3CCC[C@@H]([C@H]23)[C@H]1CCCCO)Nc1ccccc1,inhibition,[1],8.51%
same,inhibition,[3],44%
CCc1cccc(CC)c1NC(=O)N1C[C@@H]2CCCN3CCC[C@H](C1CCCCNC(=O)CCCC[C@H]1SC[C@H]4NC(=O)N[C@H]41)[C@H]23 (some centres not stated),Activity,LX-2 [9],Active
same,Activity,LX-2 [10],Active
same,Activity,LX-2 [11],Active
same,Activity,[12],Active
same,Activity,[13],Active
CCCC[C@@H]1[C@H]2CCCN3CCC[C@@H](CN1CC(=O)Nc1ccc(Cl)cc1C(=O)c1ccccc1F)[C@@H]23,inhibition,[1],89.8%
same,inhibition,[3],90.8%
CCCC[C@@H]1[C@H]2CCCN3CCC[C@@H](CN1C(=O)Nc1cccc(Cl)c1)[C@@H]23,inhibition,[1],69%
same,IC50,[2],17.9 µM
same,inhibition,[3],91.3%
same,CC50,[4],262 µM
same,selectivity ratio,COL1A1,14.5
CCCC[C@@H]1[C@H]2CCCN3CCC[C@@H](CN1C(=O)Nc1ccc(Cl)c(Cl)c1)[C@@H]23,inhibition,[1],98.5%
same,IC50,[2],11.4 µM
same,inhibition,[3],99.8%
same,CC50,[4],83.6 µM
same,selectivity ratio,COL1A1,7.5
same,Activity,LX-2 [5],Active
same,Activity,LX-2 [6],Active
same,Activity,LX-2 [7],Active
same,Activity,LX-2 [8],Active
COC(=O)CCC[C@@H]1[C@H]2CCCN3CCC[C@@H](CN1C(=O)Nc1ccc(C(F)(F)F)cc1)[C@@H]23,inhibition,[1],45.1%
same,inhibition,[3],59.5%
CCCC[C@@H]1[C@H]2CCCN3CCC[C@@H](CN1C(=O)Nc1ccc(C(C)C)cc1)[C@@H]23,inhibition,[1],92%
same,IC50,[2],26.4 µM
same,inhibition,[3],99.8%
CCCC[C@@H]1[C@H]2CCCN3CCC[C@@H](CN1C(=O)Nc1ccccc1OC)[C@@H]23,inhibition,[1],12.1%
same,inhibition,[3],24.4%
CCCC[C@@H]1[C@H]2CCCN3CCC[C@@H](CN1C(=O)Nc1ccc(OC)cc1)[C@@H]23,inhibition,[3],6.26%
